Reference: patent US20240415914A1, “Water Dispersible Cannabinoid Compositions” (priority 2021, published 2024)
Like-named read-outs stand apart in the source and are kept apart here.

Legend:
[1] = Stability of cannabinoid and Vitamin E components of Beverage 2 (AB Red) stored at 8° C. and 21-25° C., LCMSMS over 570 days
Method: The LCMSMS was calibrated for 0-50 ng/ml cannabinoids with the same resin material used in the preparation of the concentrates. At each time period, 100 μml of beverage was diluted with 10 ml of methanol and injected into the LCMSMS for analysis.

[2] = type: physicochemical; details: stored at room temperature (21-25° C.)
Method: At each time period, 0.05 g of powder was dissolved in 10 ml-15 of ethanol, diluted to fall within the analytical range, and injected into the LCMSMS for analysis.

## Cc1c(C)c2c(c(C)c1OC(=O)CCC(=O)O)CC[C@@](C)(CCC[C@H](C)CCC[C@H](C)CCCC(C)C)O2 [α-Tocopheryl succinate]
[1]; 8° C., 0 days
  Stability of Vitamin Es in AB Red: 12.5 µg/mL
[1]; 8° C., 1 days
  Stability of Vitamin Es in AB Red: 11.7 µg/mL
[1]; 8° C., 2 days
  Stability of Vitamin Es in AB Red: 11.7 µg/mL
[1]; 8° C., 3 days
  Stability of Vitamin Es in AB Red: 11.7 µg/mL
[1]; 8° C., 5 days
  Stability of Vitamin Es in AB Red: 11.5 µg/mL
[1]; 8° C., 8 days
  Stability of Vitamin Es in AB Red: 12.6 µg/mL
[1]; 8° C., 9 days
  Stability of Vitamin Es in AB Red: 11.8 µg/mL
[1]; 8° C., 10 days
  Stability of Vitamin Es in AB Red: 12.6 µg/mL
[1]; 8° C., 11 days
  Stability of Vitamin Es in AB Red: 12.1 µg/mL
[1]; 8° C., 12 days
  Stability of Vitamin Es in AB Red: 12.7 µg/mL
[1]; 8° C., 15 days
  Stability of Vitamin Es in AB Red: 12.5 µg/mL
[1]; 8° C., 16 days
  Stability of Vitamin Es in AB Red: 11.5 µg/mL
[1]; 8° C., 17 days
  Stability of Vitamin Es in AB Red: 12.4 µg/mL
[1]; 8° C., 18 days
  Stability of Vitamin Es in AB Red: 11.9 µg/mL
[1]; 8° C., 19 days
  Stability of Vitamin Es in AB Red: 11.7 µg/mL
[1]; 8° C., 22 days
  Stability of Vitamin Es in AB Red: 11.9 µg/mL
[1]; 8° C., 23 days
  Stability of Vitamin Es in AB Red: 12.0 µg/mL
[1]; 8° C., 24 days
  Stability of Vitamin Es in AB Red: 12.2 µg/mL
[1]; 8° C., 25 days
  Stability of Vitamin Es in AB Red: 12.0 µg/mL
[1]; 8° C., 26 days
  Stability of Vitamin Es in AB Red: 12.5 µg/mL
[1]; 8° C., 29 days
  Stability of Vitamin Es in AB Red: 11.6 µg/mL
[1]; 8° C., 30 days
  Stability of Vitamin Es in AB Red: 12.4 µg/mL
[1]; 8° C., 60 days
  Stability of Vitamin Es in AB Red: 11.4 µg/mL
[1]; 8° C., 90 days
  Stability of Vitamin Es in AB Red: 11.5 µg/mL
[1]; 8° C., 120 days
  Stability of Vitamin Es in AB Red: 12.2 µg/mL
[1]; 8° C., 150 days
  Stability of Vitamin Es in AB Red: 11.5 µg/mL
[1]; 8° C., 180 days
  Stability of Vitamin Es in AB Red: 11.4 µg/mL
[1]; 8° C., 210 days
  Stability of Vitamin Es in AB Red: 11.4 µg/mL
[1]; 8° C., 240 days
  Stability of Vitamin Es in AB Red: 11.6 µg/mL
[1]; 8° C., 270 days
  Stability of Vitamin Es in AB Red: 11.5 µg/mL
[1]; 8° C., 300 days
  Stability of Vitamin Es in AB Red: 11.2 µg/mL
[1]; 8° C., 330 days
  Stability of Vitamin Es in AB Red: 11.7 µg/mL
[1]; 8° C., 390 days
  Stability of Vitamin Es in AB Red: 11.2 µg/mL
[1]; 8° C., 420 days
  Stability of Vitamin Es in AB Red: 11.0 µg/mL
[1]; 8° C., 450 days
  Stability of Vitamin Es in AB Red: 11.2 µg/mL
[1]; 8° C., 480 days
  Stability of Vitamin Es in AB Red: 10.9 µg/mL
[1]; 8° C., 510 days
  Stability of Vitamin Es in AB Red: 10.8 µg/mL
[1]; 8° C., 540 days
  Stability of Vitamin Es in AB Red: 10.9 µg/mL
[1]; 8° C., 570 days
  Stability of Vitamin Es in AB Red: 10.6 µg/mL
[1]; 21-25° C., 0 days
  Stability of Vitamin Es in AB Red: 12.5 µg/mL
[1]; 21-25° C., 1 days
  Stability of Vitamin Es in AB Red: 12.5 µg/mL
[1]; 21-25° C., 2 days
  Stability of Vitamin Es in AB Red: 12.0 µg/mL
[1]; 21-25° C., 3 days
  Stability of Vitamin Es in AB Red: 11.9 µg/mL
[1]; 21-25° C., 5 days
  Stability of Vitamin Es in AB Red: 11.9 µg/mL
[1]; 21-25° C., 8 days
  Stability of Vitamin Es in AB Red: 12.0 µg/mL
[1]; 21-25° C., 9 days
  Stability of Vitamin Es in AB Red: 11.7 µg/mL
[1]; 21-25° C., 10 days
  Stability of Vitamin Es in AB Red: 12.0 µg/mL
[1]; 21-25° C., 11 days
  Stability of Vitamin Es in AB Red: 12.0 µg/mL
[1]; 21-25° C., 12 days
  Stability of Vitamin Es in AB Red: 12.4 µg/mL
[1]; 21-25° C., 15 days
  Stability of Vitamin Es in AB Red: 11.6 µg/mL
[1]; 21-25° C., 16 days
  Stability of Vitamin Es in AB Red: 11.6 µg/mL
[1]; 21-25° C., 17 days
  Stability of Vitamin Es in AB Red: 12.6 µg/mL
[1]; 21-25° C., 18 days
  Stability of Vitamin Es in AB Red: 12.1 µg/mL
[1]; 21-25° C., 19 days
  Stability of Vitamin Es in AB Red: 11.9 µg/mL
[1]; 21-25° C., 22 days
  Stability of Vitamin Es in AB Red: 11.6 µg/mL
[1]; 21-25° C., 23 days
  Stability of Vitamin Es in AB Red: 12.7 µg/mL
[1]; 21-25° C., 24 days
  Stability of Vitamin Es in AB Red: 12.4 µg/mL
[1]; 21-25° C., 25 days
  Stability of Vitamin Es in AB Red: 11.9 µg/mL
[1]; 21-25° C., 26 days
  Stability of Vitamin Es in AB Red: 12.1 µg/mL
[1]; 21-25° C., 29 days
  Stability of Vitamin Es in AB Red: 12.4 µg/mL
[1]; 21-25° C., 30 days
  Stability of Vitamin Es in AB Red: 12.1 µg/mL
[1]; 21-25° C., 60 days
  Stability of Vitamin Es in AB Red: 11.7 µg/mL
[1]; 21-25° C., 90 days
  Stability of Vitamin Es in AB Red: 11.6 µg/mL
[1]; 21-25° C., 120 days
  Stability of Vitamin Es in AB Red: 11.5 µg/mL
[1]; 21-25° C., 150 days
  Stability of Vitamin Es in AB Red: 11.4 µg/mL
[1]; 21-25° C., 180 days
  Stability of Vitamin Es in AB Red: 12.3 µg/mL
[1]; 21-25° C., 210 days
  Stability of Vitamin Es in AB Red: 11.6 µg/mL
[1]; 21-25° C., 240 days
  Stability of Vitamin Es in AB Red: 11.6 µg/mL
[1]; 21-25° C., 270 days
  Stability of Vitamin Es in AB Red: 11.0 µg/mL
[1]; 21-25° C., 300 days
  Stability of Vitamin Es in AB Red: 11.4 µg/mL
[1]; 21-25° C., 330 days
  Stability of Vitamin Es in AB Red: 11.4 µg/mL
[1]; 21-25° C., 390 days
  Stability of Vitamin Es in AB Red: 10.8 µg/mL
[1]; 21-25° C., 420 days
  Stability of Vitamin Es in AB Red: 11.0 µg/mL
[1]; 21-25° C., 450 days
  Stability of Vitamin Es in AB Red: 11.2 µg/mL
[1]; 21-25° C., 480 days
  Stability of Vitamin Es in AB Red: 10.4 µg/mL
[1]; 21-25° C., 510 days
  Stability of Vitamin Es in AB Red: 10.6 µg/mL
[1]; 21-25° C., 540 days
  Stability of Vitamin Es in AB Red: 10.3 µg/mL
[1]; 21-25° C., 570 days
  Stability of Vitamin Es in AB Red: 10.6 µg/mL
[2]; day 0
  Stability in Powder Concentrate (content by LCMSMS): 1.82 mg/g powder
[2]; day 1
  Stability in Powder Concentrate (content by LCMSMS): 1.81 mg/g powder
[2]; day 2
  Stability in Powder Concentrate (content by LCMSMS): 1.81 mg/g powder
[2]; day 3
  Stability in Powder Concentrate (content by LCMSMS): 1.81 mg/g powder
[2]; day 5
  Stability in Powder Concentrate (content by LCMSMS): 1.83 mg/g powder
[2]; day 8
  Stability in Powder Concentrate (content by LCMSMS): 1.90 mg/g powder
[2]; day 9
  Stability in Powder Concentrate (content by LCMSMS): 1.89 mg/g powder
[2]; day 10
  Stability in Powder Concentrate (content by LCMSMS): 1.87 mg/g powder
[2]; day 11
  Stability in Powder Concentrate (content by LCMSMS): 1.89 mg/g powder
[2]; day 12
  Stability in Powder Concentrate (content by LCMSMS): 1.87 mg/g powder
[2]; day 15
  Stability in Powder Concentrate (content by LCMSMS): 1.87 mg/g powder
[2]; day 16
  Stability in Powder Concentrate (content by LCMSMS): 1.83 mg/g powder
[2]; day 17
  Stability in Powder Concentrate (content by LCMSMS): 1.88 mg/g powder
[2]; day 18
  Stability in Powder Concentrate (content by LCMSMS): 1.77 mg/g powder
[2]; day 19
  Stability in Powder Concentrate (content by LCMSMS): 1.85 mg/g powder
[2]; day 22
  Stability in Powder Concentrate (content by LCMSMS): 1.78 mg/g powder
[2]; day 23
  Stability in Powder Concentrate (content by LCMSMS): 1.80 mg/g powder
[2]; day 24
  Stability in Powder Concentrate (content by LCMSMS): 1.90 mg/g powder
[2]; day 25
  Stability in Powder Concentrate (content by LCMSMS): 1.90 mg/g powder
[2]; day 26
  Stability in Powder Concentrate (content by LCMSMS): 1.76 mg/g powder
[2]; day 29
  Stability in Powder Concentrate (content by LCMSMS): 1.87 mg/g powder
[2]; day 30
  Stability in Powder Concentrate (content by LCMSMS): 1.80 mg/g powder
[2]; day 60
  Stability in Powder Concentrate (content by LCMSMS): 1.77 mg/g powder
[2]; day 90
  Stability in Powder Concentrate (content by LCMSMS): 1.83 mg/g powder
[2]; day 120
  Stability in Powder Concentrate (content by LCMSMS): 1.83 mg/g powder
[2]; day 150
  Stability in Powder Concentrate (content by LCMSMS): 1.89 mg/g powder
[2]; day 180
  Stability in Powder Concentrate (content by LCMSMS): 1.77 mg/g powder
[2]; day 210
  Stability in Powder Concentrate (content by LCMSMS): 1.80 mg/g powder
[2]; day 240
  Stability in Powder Concentrate (content by LCMSMS): 1.84 mg/g powder
[2]; day 270
  Stability in Powder Concentrate (content by LCMSMS): 1.87 mg/g powder
[2]; day 300
  Stability in Powder Concentrate (content by LCMSMS): 1.84 mg/g powder
[2]; day 330
  Stability in Powder Concentrate (content by LCMSMS): 1.83 mg/g powder
[2]; day 360
  Stability in Powder Concentrate (content by LCMSMS): 1.79 mg/g powder
[2]; day 390
  Stability in Powder Concentrate (content by LCMSMS): 1.87 mg/g powder
[2]; day 420
  Stability in Powder Concentrate (content by LCMSMS): 1.82 mg/g powder
[2]; day 450
  Stability in Powder Concentrate (content by LCMSMS): 1.80 mg/g powder
[2]; day 480
  Stability in Powder Concentrate (content by LCMSMS): 1.76 mg/g powder
[2]; day 510
  Stability in Powder Concentrate (content by LCMSMS): 1.76 mg/g powder
[2]; day 540
  Stability in Powder Concentrate (content by LCMSMS): 1.80 mg/g powder
[2]; day 570
  Stability in Powder Concentrate (content by LCMSMS): 1.77 mg/g powder
